Measurements from ChEMBL document CHEMBL5154743, “Bicyclic Heterocyclic Replacement of an Aryl Amide Leading to Potent and Kinase-Selective Adaptor Protein 2-Associated Kinase 1 Inhibitors” (J Med Chem, 2022).

Assays:
[1] = biological target: T1, AP2-associated protein kinase 1 (Homo sapiens, UniProt Q2M2I8)
[2] = Permeability across basolateral to apical side in human Caco-2 cells incubated for 2 hrs by LC-MS/MS analysis; type: ADME, cell-based; details: for Papp B→A at 2 h: Caco-2, read-out: permeability
[3] = Ratio of drug concentration in brain to plasma in C57BL6 mouse at 60 mg/kg, sc; type: ADME, organism-based; details: read-out: BPR
[4] = Permeability of the compound at pH 5.5 by PAMPA; type: ADME; details: read-out: permeability
[5] = Unbound brain to plasma concentration ratio in C57BL6 mouse at 60 mg/kg, sc; type: ADME, organism-based; details: read-out: K(p,uu,brain)
[6] = Permeability of the compound at pH 7.4 by PAMPA; type: ADME; details: read-out: permeability
[7] = Plasma concentration in C57BL6 mouse at 60 mg/kg, sc by LC-MS/MS analysis; type: ADME, organism-based; details: in vivo
[8] = Brain concentration in C57BL6 mouse at 60 mg/kg, sc by LC-MS analysis; type: ADME, organism-based; details: in vivo, read-out: Ct
[9] = Metabolic stability in human liver microsomes assessed as parent compound remaining at 0.5 uM incubated for 10 mins in presence of NADPH by LC-MS/MS analysis; type: ADME, Microsome; details: read-out: Stability
[10] = Metabolic stability in rat liver microsomes assessed as parent compound remaining at 0.5 uM incubated for 10 mins in presence of NADPH by LC-MS/MS analysis; type: ADME, Microsome; details: read-out: Stability
[11] = Metabolic stability in mouse liver microsomes assessed as parent compound remaining at 0.5 uM incubated for 10 mins in presence of NADPH by LC-MS/MS analysis; type: ADME, Microsome; details: read-out: Stability
[12] = Plasma protein binding in rat assessed as unbound fraction at 10 uM incubated for 5 hrs by rapid equlibrium dialysis based LC-MS/MS method
[13] = biological target: T1, AP2-associated protein kinase 1; test: Inhibition of full length human AAK1 expressed in HEK293F incubated for 3 hrs by Western blot analysis; type: cell-based
[14] = Brain concentration in C57BL6 mouse at 30 mg/kg, sc by LC-MS analysis; type: ADME, organism-based; details: in vivo, read-out: Ct
[15] = Unbound brain to plasma concentration ratio in C57BL6 mouse at 30 mg/kg, sc; type: ADME, organism-based; details: read-out: K(p,uu,brain)
[16] = Plasma protein binding in mouse assessed as unbound fraction at 10 uM incubated for 5 hrs by rapid equlibrium dialysis based LC-MS/MS method
[17] = Plasma protein binding in human assessed as unbound fraction at 10 uM incubated for 5 hrs by rapid equlibrium dialysis based LC-MS/MS method
[18] = Plasma concentration in C57BL6 mouse at 30 mg/kg, sc by LC-MS/MS analysis; type: ADME, organism-based; details: in vivo
[19] = Ratio of drug concentration in brain to plasma in C57BL6 mouse at 30 mg/kg, sc; type: ADME, organism-based; details: read-out: BPR
[20] = Permeability across apical to basolateral side in human Caco-2 cells incubated for 2 hrs by LC-MS/MS analysis
[21] = biological target: T2, Serine/threonine-protein kinase Chk1 (Homo sapiens, UniProt O14757); test: Inhibition of CHK1 (unknown origin)
T2 sequence (O14757 whole entry): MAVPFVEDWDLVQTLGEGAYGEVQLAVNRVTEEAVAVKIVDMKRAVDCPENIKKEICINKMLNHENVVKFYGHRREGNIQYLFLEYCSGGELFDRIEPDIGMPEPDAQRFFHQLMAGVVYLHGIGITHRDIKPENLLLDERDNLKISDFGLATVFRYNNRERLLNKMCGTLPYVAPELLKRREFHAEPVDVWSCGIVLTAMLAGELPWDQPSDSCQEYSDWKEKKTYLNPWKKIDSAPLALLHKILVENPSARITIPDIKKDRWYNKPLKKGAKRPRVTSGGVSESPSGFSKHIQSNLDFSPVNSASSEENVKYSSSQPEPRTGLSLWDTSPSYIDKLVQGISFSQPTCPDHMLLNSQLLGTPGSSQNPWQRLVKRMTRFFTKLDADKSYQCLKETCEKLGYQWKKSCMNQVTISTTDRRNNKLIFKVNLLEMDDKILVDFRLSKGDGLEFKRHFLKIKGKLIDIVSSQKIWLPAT

[22] = biological target: T3, Cyclin-G-associated kinase (Homo sapiens, UniProt O14976); test: Inhibition of GAK (unknown origin)
T3 sequence (O14976 whole entry): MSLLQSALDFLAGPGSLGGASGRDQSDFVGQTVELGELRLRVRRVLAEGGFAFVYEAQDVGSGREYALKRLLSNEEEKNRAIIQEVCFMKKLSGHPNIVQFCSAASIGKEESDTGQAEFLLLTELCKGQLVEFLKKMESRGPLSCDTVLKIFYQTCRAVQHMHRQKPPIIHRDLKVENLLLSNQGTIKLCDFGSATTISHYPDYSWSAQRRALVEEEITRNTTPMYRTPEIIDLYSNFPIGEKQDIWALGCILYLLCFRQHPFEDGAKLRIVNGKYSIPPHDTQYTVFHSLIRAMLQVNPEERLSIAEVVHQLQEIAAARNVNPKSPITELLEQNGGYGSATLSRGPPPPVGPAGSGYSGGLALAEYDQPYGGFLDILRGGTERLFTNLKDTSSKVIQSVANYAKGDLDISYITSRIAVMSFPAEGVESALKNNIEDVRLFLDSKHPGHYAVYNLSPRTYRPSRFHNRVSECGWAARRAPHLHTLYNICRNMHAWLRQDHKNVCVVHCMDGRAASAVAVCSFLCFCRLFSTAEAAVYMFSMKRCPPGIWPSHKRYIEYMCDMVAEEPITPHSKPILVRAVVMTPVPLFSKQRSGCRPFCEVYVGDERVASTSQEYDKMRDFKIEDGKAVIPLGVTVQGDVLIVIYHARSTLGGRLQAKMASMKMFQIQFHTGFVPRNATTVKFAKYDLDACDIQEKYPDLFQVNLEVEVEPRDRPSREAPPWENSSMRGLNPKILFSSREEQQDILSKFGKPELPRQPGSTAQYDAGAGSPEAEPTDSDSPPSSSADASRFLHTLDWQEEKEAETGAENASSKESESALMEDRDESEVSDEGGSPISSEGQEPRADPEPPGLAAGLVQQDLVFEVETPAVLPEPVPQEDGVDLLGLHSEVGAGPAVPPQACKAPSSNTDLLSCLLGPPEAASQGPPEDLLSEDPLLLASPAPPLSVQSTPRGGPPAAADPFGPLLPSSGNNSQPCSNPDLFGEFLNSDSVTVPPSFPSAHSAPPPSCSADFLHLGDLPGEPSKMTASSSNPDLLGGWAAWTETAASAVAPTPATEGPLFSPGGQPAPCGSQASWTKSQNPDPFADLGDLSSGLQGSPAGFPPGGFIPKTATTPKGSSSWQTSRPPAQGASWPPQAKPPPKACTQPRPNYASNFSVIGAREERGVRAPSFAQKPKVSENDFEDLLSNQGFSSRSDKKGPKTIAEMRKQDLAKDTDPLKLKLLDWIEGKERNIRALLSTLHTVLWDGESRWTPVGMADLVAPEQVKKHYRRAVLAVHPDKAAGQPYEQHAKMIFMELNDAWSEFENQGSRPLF

[23] = biological target: MAP kinase-interacting serine/threonine-protein kinase 1 (Homo sapiens, UniProt Q9BUB5); test: Inhibition of MNK1 (unknown origin)
Sequence of MAP kinase-interacting serine/threonine-protein kinase 1 (Q9BUB5 whole entry): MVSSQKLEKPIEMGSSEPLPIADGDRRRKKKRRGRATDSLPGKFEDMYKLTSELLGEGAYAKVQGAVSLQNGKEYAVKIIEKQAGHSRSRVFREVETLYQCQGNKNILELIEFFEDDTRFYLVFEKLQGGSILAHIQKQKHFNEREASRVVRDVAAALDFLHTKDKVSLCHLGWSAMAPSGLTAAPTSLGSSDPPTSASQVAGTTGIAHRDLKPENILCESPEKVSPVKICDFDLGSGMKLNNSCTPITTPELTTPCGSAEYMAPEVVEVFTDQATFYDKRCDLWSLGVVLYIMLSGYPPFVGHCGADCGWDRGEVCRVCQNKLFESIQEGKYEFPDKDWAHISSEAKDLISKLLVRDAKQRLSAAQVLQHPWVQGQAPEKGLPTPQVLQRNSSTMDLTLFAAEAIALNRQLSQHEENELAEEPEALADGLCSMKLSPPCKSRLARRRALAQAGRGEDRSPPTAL

[24] = biological target: Glycogen synthase kinase-3 beta (Homo sapiens, UniProt P49841); test: Inhibition of GSK3beta (unknown origin)
Sequence of Glycogen synthase kinase-3 beta (P49841 whole entry): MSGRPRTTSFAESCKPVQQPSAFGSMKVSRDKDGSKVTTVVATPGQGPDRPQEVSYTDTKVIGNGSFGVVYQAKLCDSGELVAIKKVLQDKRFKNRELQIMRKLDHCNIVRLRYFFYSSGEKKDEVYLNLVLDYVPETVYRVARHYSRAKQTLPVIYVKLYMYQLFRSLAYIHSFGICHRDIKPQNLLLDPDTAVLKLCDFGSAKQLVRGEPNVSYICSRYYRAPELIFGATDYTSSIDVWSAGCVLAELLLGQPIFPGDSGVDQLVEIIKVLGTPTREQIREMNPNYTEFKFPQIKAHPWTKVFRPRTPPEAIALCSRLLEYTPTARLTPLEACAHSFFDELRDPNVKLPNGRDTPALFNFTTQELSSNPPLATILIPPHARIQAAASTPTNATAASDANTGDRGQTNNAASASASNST

[25] = biological target: BMP-2-inducible protein kinase (Homo sapiens, UniProt Q9NSY1); test: Inhibition of BIKE (unknown origin)
Sequence of BMP-2-inducible protein kinase (Q9NSY1 whole entry): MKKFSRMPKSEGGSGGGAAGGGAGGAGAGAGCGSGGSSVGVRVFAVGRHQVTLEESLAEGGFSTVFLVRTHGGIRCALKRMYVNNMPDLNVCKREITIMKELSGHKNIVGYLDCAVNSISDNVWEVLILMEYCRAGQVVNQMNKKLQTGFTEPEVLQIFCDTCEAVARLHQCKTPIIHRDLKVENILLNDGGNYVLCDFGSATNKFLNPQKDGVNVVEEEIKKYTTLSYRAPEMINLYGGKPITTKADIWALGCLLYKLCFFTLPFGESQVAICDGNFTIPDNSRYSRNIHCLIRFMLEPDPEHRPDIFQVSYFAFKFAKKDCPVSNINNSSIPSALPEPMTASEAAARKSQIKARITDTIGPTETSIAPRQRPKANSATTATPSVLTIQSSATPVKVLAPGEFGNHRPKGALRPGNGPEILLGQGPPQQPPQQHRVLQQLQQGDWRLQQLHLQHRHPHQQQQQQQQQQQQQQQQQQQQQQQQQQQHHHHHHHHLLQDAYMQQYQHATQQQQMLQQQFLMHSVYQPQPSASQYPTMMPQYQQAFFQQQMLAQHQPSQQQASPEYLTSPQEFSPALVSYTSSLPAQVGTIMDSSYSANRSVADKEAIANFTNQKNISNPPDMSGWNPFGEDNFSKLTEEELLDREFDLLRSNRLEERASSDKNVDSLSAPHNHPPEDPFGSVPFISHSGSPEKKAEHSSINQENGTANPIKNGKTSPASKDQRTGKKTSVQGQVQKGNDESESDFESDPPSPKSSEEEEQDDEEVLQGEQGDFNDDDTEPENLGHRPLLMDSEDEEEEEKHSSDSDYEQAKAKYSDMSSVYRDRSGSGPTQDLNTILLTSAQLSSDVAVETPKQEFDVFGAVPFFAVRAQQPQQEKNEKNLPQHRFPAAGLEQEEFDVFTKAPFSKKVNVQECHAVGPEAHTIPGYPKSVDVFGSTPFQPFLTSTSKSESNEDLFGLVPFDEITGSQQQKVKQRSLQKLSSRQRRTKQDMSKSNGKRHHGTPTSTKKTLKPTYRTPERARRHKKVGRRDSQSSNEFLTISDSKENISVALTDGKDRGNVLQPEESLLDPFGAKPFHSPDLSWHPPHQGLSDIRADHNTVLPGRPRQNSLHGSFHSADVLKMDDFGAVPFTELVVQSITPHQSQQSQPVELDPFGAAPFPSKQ

[26] = biological target: Serine/threonine-protein kinase 16 (Homo sapiens, UniProt O75716); test: Inhibition of MPSK1 (unknown origin)
Sequence of Serine/threonine-protein kinase 16 (O75716 whole entry): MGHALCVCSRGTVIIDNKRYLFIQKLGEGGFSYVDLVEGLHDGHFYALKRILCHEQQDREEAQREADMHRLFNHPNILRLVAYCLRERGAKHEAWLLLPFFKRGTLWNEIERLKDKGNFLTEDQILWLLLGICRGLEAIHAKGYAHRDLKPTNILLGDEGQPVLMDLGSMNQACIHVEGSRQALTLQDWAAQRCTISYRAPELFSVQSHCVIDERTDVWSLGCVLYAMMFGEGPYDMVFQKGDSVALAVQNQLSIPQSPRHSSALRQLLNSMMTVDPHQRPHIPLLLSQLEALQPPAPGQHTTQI

T1 sequence (Q2M2I8 whole entry): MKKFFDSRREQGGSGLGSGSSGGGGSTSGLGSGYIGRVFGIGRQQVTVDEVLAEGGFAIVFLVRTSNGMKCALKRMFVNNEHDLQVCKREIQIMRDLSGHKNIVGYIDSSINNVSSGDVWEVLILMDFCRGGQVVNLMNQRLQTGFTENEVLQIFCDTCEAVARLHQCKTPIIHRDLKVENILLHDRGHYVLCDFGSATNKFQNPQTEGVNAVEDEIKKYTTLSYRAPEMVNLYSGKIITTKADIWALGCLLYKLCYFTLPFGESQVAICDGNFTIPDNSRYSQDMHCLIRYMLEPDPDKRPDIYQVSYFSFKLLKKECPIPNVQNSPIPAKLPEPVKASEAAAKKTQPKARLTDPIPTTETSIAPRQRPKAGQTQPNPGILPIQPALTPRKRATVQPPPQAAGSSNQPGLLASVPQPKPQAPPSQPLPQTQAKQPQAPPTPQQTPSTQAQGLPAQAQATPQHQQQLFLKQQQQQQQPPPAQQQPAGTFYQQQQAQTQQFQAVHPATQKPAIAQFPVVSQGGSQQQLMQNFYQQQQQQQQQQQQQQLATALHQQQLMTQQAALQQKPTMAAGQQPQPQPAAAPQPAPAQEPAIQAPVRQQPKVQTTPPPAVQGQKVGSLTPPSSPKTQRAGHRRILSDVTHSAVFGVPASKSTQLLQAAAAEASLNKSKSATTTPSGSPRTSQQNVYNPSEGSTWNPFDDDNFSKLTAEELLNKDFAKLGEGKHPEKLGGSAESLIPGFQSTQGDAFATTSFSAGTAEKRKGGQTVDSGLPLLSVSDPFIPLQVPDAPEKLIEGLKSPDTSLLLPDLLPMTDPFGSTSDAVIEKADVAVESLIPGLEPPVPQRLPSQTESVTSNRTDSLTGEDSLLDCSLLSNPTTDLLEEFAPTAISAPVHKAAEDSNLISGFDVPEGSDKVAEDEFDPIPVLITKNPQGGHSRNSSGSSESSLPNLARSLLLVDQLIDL

COc1cc2nc(C(N)CC(C)C)nc(C#N)c2cc1-c1cnco1 (centres undefined)
IC50 [1]: 6.2 nM

CC(C)C[C@@H](N)C(=O)Nc1ccc(-c2cnco2)c(OC(F)F)c1
permeability ([2]; caco-2, 2 h): 11.3 10^-6 cm/s
Kp [3]: 0.7
Papp [4]: 96.7 ×10⁻⁶ cm/s
Kp uu [5]: 0.5
Papp [6]: 91.8 ×10⁻⁶ cm/s
concentration [7]: 41 µM
concentration [8]: 27 µM

COc1cc2nc(C(N)CC(C)C)ncc2cc1-c1cnco1 (centres undefined)
IC50 [1]: 110 nM

CCOc1nc(C(N)CC(C)C)nc2ccc(-c3cnco3)cc12 (centres undefined)
IC50 [1]: 340 nM

CCc1nc([C@H](N)CC(C)C)nc2ccc(-c3cnco3)cc12
IC50 [1]: 220 nM

CC(C)CC(N)c1nc2ccc(-c3ccncc3)cc2cc1C#N (centres undefined)
IC50 [1]: 1800 nM

CC(C)C[C@@H](N)c1cc(C#N)c2cc(-c3ccncc3)ccc2n1
remaining at 10 min, 0.5 µM [9]: 83%
remaining at 10 min, 0.5 µM [10]: 43%
remaining at 10 min, 0.5 µM [11]: 77%
Papp B→A at 2 h [2]: 10.3 ×10⁻⁶ cm/s
fraction unbound at 5 h, 10 µM [12]: 0.045
IC50 [13]: 108 nM
IC50 [1]: 11 nM
concentration [14]: 29 µM
Kp uu [15]: 0.4
fraction unbound at 5 h, 10 µM [16]: 0.13
fraction unbound at 5 h, 10 µM [17]: 0.18
concentration [18]: 23 µM
Papp [4]: 40 ×10⁻⁶ cm/s
Papp [6]: 30.7 ×10⁻⁶ cm/s
Kp [19]: 1.3
Papp A→B at 2 h [20]: 13.5 ×10⁻⁶ cm/s

CCc1nc(C(N)CC(C)C)nc2ccc(-c3cnco3)cc12 (centres undefined)
IC50 [1]: 67 nM

CCc1nc(C(N)CC(C)C)nc2cc(OC)c(-c3ccncc3)cc12 (centres undefined)
IC50 [1]: 420 nM

CC(C)C[C@H](N)c1cc(C#N)c2cc(-c3cnco3)ccc2n1
remaining at 10 min, 0.5 µM [9]: 76%
remaining at 10 min, 0.5 µM [10]: 56%
remaining at 10 min, 0.5 µM [11]: 71%
Papp B→A at 2 h [2]: 5.7 ×10⁻⁶ cm/s
fraction unbound at 5 h, 10 µM [12]: 0.009
IC50 [13]: 32 nM
IC50 [1]: 4.2 nM
fraction unbound at 5 h, 10 µM [16]: 0.03
fraction unbound at 5 h, 10 µM [17]: 0.014
Papp [6]: 93 ×10⁻⁶ cm/s
Papp A→B at 2 h [20]: 7.1 ×10⁻⁶ cm/s

CC(C)CC(N)c1cc(C#N)c2cc(-c3ccncc3)ccc2n1 (centres undefined)
IC50 [1]: 7.3 nM

CCNc1nc(C(N)CC(C)C)nc2ccc(-c3cnco3)cc12 (centres undefined)
IC50 [1]: 1100 nM

CCc1nc(C(N)CC(C)C)nc2ccc(-c3ccncc3)cc12 (centres undefined)
IC50 [1]: 44 nM

CCc1nc([C@@H](N)CC(C)C)nc2cc(OC)c(-c3cnco3)cc12
remaining at 10 min, 0.5 µM [9]: 83%
remaining at 10 min, 0.5 µM [10]: 43%
remaining at 10 min, 0.5 µM [11]: 47%
Papp B→A at 2 h [2]: 14.2 ×10⁻⁶ cm/s
fraction unbound at 5 h, 10 µM [12]: 0.077
IC50 [13]: 34 nM
IC50 [1]: 12 nM
fraction unbound at 5 h, 10 µM [16]: 0.1
fraction unbound at 5 h, 10 µM [17]: 0.17
Papp [4]: 80.3 ×10⁻⁶ cm/s
Papp [6]: 78.5 ×10⁻⁶ cm/s
Papp A→B at 2 h [20]: 13.4 ×10⁻⁶ cm/s

CC(C)C[C@H](N)c1cc(C#N)c2cc(-c3ccncc3)ccc2n1
remaining at 10 min, 0.5 µM [9]: 72%
remaining at 10 min, 0.5 µM [10]: 50%
remaining at 10 min, 0.5 µM [11]: 56%
Papp B→A at 2 h [2]: 4.4 ×10⁻⁶ cm/s
fraction unbound at 5 h, 10 µM [12]: 0.054
IC50 [13]: 19 nM
IC50 [1]: 5.8 nM
concentration [14]: 23 µM
Kp uu [15]: 0.4
fraction unbound at 5 h, 10 µM [16]: 0.14
fraction unbound at 5 h, 10 µM [17]: 0.18
concentration [18]: 16 µM
IC50 [21]: 998 nM
Papp [4]: 112 ×10⁻⁶ cm/s
IC50 [22]: > 1000 nM
IC50 [23]: 57 nM
Papp [6]: 96.9 ×10⁻⁶ cm/s
IC50 [24]: 112 nM
IC50 [25]: 161 nM
Kp [19]: 1.5
Papp A→B at 2 h [20]: 11.4 ×10⁻⁶ cm/s
IC50 [26]: > 1000 nM

CCc1nc([C@H](N)CC(C)C)nc2cc(OC)c(-c3cnco3)cc12
IC50 [1]: 95 nM

CC(C)C[C@@H](N)c1cc(C#N)c2cc(-c3cnco3)ccc2n1
IC50 [1]: 22 nM

CC(C)CC(N)c1nc(C#N)c2cc(-c3ccncc3)ccc2n1 (centres undefined)
IC50 [1]: 16 nM

CC(C)CC(N)c1ccc2cc(-c3ccncc3)ccc2n1 (centres undefined)
IC50 [1]: 21 nM

CCc1nc([C@@H](N)CC(C)C)nc2ccc(-c3cnco3)cc12
remaining at 10 min, 0.5 µM [9]: 62%
remaining at 10 min, 0.5 µM [10]: 26%
remaining at 10 min, 0.5 µM [11]: 56%
Papp B→A at 2 h [2]: 15.6 ×10⁻⁶ cm/s
fraction unbound at 5 h, 10 µM [12]: 0.25
IC50 [13]: 49 nM
IC50 [1]: 30 nM
fraction unbound at 5 h, 10 µM [16]: 0.11
fraction unbound at 5 h, 10 µM [17]: 0.32
Papp [4]: 93.5 ×10⁻⁶ cm/s
Papp [6]: 90.7 ×10⁻⁶ cm/s
Papp A→B at 2 h [20]: 18.4 ×10⁻⁶ cm/s
